# Data from patent publication US20110077294A1, “R-(-) / S-(+)-7-[3-N SUBSTITUTED AMINO-2 HYDROXYPROPOXY] FLAVONES” (priority 2006, published 2011).
# Marks after values point to notes of the source that are not given here.
# Key:
# Format in all cases: in vivo
# [1] = system: C57BL/KsBom-db/db mice; assay: Serum lipid profile of treated db/db mice (antidyslipidemic activity); conditions: 25 mg/kg
# Description: (§1) C57BL/KsBom-db/db mice (12-18 weeks old), weighing around 35+g bred in the animal house of CDRI, Lucknow, were used in the present experiments. The mice were housed in groups of 3 to 5 (same sex) in a room controlled for temperature (23±2.0 ° C.) and 12/12 hours light/dark cycle (lights on at 6.00 am). Body weight of each animal was measured daily from day 1 to day 10 of the experiment. All animals had free access to fresh water and normal pellet diet except on the day of the postprandial protocol (day 6) and during the overnight fast before the OGTT on day 10. The animals always had access to water during experimental periods. Blood glucose was checked every morning up till day 10. On day 10 an oral glucose tolerance test (OGTT) was performed after an overnight fasting. Blood glucose was measured at −30.0 min and test compounds were administered. The blood glucose was again measured at 0 min just post treatment and at this juncture glucose solution was given at a dose of 3 gm/kg to all the groups including the vehicle treated group. The blood glucose levels were checked at 30 min, 60 min, 90 min and 120 min post glucose administration. The data was analyzed for its significance on Prism software.
# [2] = system: C57BL/KsBom-db/db mice; assay: as above
# [3] = system: C57BL/KsBom-db/db mice; assay: Oral glucose tolerance test (OGTT) on day 10 in db/db mice; conditions: for Blood glucose profile, 0 min post glucose load / Blood glucose % change compared to control, 0 min post glucose load: OGTT day 10, 0 min; for Blood glucose profile, 30 min post glucose load / Blood glucose % change compared to control, 30 min post glucose load: OGTT day 10, 30 min; for Blood glucose profile, 60 min post glucose load / Blood glucose % change compared to control, 60 min post glucose load: OGTT day 10, 60 min; for Blood glucose profile, 90 min post glucose load / Blood glucose % change compared to control, 90 min post glucose load: OGTT day 10, 90 min; for Blood glucose profile, 120 min post glucose load / Blood glucose % change compared to control, 120 min post glucose load: OGTT day 10, 120 min; for Blood glucose profile, −30 min post glucose load / Blood glucose % change compared to control, −30 min post glucose load: OGTT day 10, −30 min; for Comparative antihyperglycemic activity: Day 10 (OGTT): in % (unit assumed)
# Description: as §1
# [4] = system: C57BL/KsBom-db/db mice; assay: Blood glucose profile of db/db mice during daily treatment (antihyperglycemic activity); conditions: for Blood glucose % change compared to control, day 1: day 1, vs sham; for Blood glucose % change compared to control, day 2: day 2, vs sham; for Blood glucose % change compared to control, day 3: day 3, vs sham; for Blood glucose % change compared to control, day 4: day 4, vs sham; for Blood glucose % change compared to control, day 5: day 5, vs sham; for Blood glucose % change compared to control, day 6: day 6, vs sham; for Blood glucose % change compared to control, day 7: day 7, vs sham; for Blood glucose % change compared to control, day 8: day 8, vs sham; for Blood glucose % change compared to control, day 9: day 9, vs sham; for Comparative antihyperglycemic activity: Average Fall: day given in brackets, in %
# Description: as §1
# [5] = db/db mice, 10 mg/kg, statistically insignificant
# [6] = db/db mice, test dose 10 mg/kg, in %
# [7] = db/db mice, test dose 25 mg/kg, in %
compound,measurement,setting,value
"CC(C)(C)NC[C@H](O)COc1ccc2c(=O)cc(-c3cc(OCc4ccccc4)cc(OCc4ccccc4)c3)oc2c1 [S-002-853 (S), (S)-(+)-7-(3-tert-Butylamino-2-hydroxypropoxy)-3′,5′-dibenzyloxyflavone]",Serum lipid profile: Cholesterol,[1],185 ± 51.4 mg/dL
same,Serum lipid profile: HDL-Chol,[1],49.5 ± 8.36 mg/dL
same,Serum lipid profile: Triglycerides,[1],115 ± 2.82 mg/dL
same,Cholesterol % change compared to control,[1]; vs sham,−21.8%
same,HDL-Chol % change compared to control,[1]; vs sham,+33.2%
same,Triglycerides % change compared to control,[1]; vs sham,−14.5%
same,enhancement of HDL-C as compared to the racemic compound,[2]; 25 mg/kg body weight,more than two folds
same,Serum lipid profile: Cholesterol,"[2]; db/db mice, 10 mg/kg",87.5 ± 3.00 mg/dL
same,Serum lipid profile: HDL-Chol,"[2]; db/db mice, 10 mg/kg",66.4 ± 2.87 mg/dL
same,Serum lipid profile: Triglycerides,"[2]; db/db mice, 10 mg/kg",110 ± 4.08 mg/dL
same,Cholesterol % change compared to control,"[2]; db/db mice, 10 mg/kg, vs sham",−16.3%
same,HDL-Chol % change compared to control,"[2]; db/db mice, 10 mg/kg, vs sham",+17.4%
same,Triglycerides % change compared to control,"[2]; db/db mice, 10 mg/kg, vs sham",−17.9%
same,elevation in HDL-cholesterol level than control,[2]; [5],+17.4%
same,lowering of serum cholesterol,[2]; [5],around 16.3%
same,lowering of serum triglycerides,[2]; [5],~17.9%
same,decrease in LDL-cholesterol level,"[2]; db/db mice, 25 mg/kg",around 29.4%
same,elevation in HDL-cholesterol level than control,"[2]; db/db mice, 25 mg/kg",33.2%
same,lowering of serum cholesterol,"[2]; db/db mice, 25 mg/kg",around 21.8%
same,lowering of serum triglycerides,"[2]; db/db mice, 25 mg/kg",~14.5%
same,Comparative antihyperlipidemic activity: HDL-C,"[2]; db/db mice, test dose 10 mg/kg",+17.4^ns
same,Comparative antihyperlipidemic activity: T-Chol,[2]; [6],16.3*
same,Comparative antihyperlipidemic activity: TG,[2]; [6],17.9*
same,Comparative antihyperlipidemic activity: HDL-C,[2]; [7],+33.2*
same,Comparative antihyperlipidemic activity: T-Chol,[2]; [7],27.8*
same,Comparative antihyperlipidemic activity: TG,[2]; [7],14.5**
same,"Blood glucose profile, 0 min post glucose load",[3]; 10 mg/kg,9.23 ± 3.10 mM
same,"Blood glucose % change compared to control, 0 min post glucose load","[3]; 10 mg/kg, vs sham",−25.7%
same,"Blood glucose profile, 30 min post glucose load",[3]; 10 mg/kg,19.3 ± 5.52 mM
same,"Blood glucose % change compared to control, 30 min post glucose load","[3]; 10 mg/kg, vs sham",−32.8%
same,"Blood glucose profile, 60 min post glucose load",[3]; 10 mg/kg,18.4 ± 5.39 mM
same,"Blood glucose % change compared to control, 60 min post glucose load","[3]; 10 mg/kg, vs sham",−27.2%
same,"Blood glucose profile, 90 min post glucose load",[3]; 10 mg/kg,12.1 ± 3.81 mM
same,"Blood glucose % change compared to control, 90 min post glucose load","[3]; 10 mg/kg, vs sham",−26.9%
same,"Blood glucose profile, 120 min post glucose load",[3]; 10 mg/kg,9.23 ± 3.10 mM
same,"Blood glucose % change compared to control, 120 min post glucose load","[3]; 10 mg/kg, vs sham",−11.7%
same,"Blood glucose profile, −30 min post glucose load",[3]; 10 mg/kg,8.37 ± 2.98 mM
same,"Blood glucose % change compared to control, −30 min post glucose load","[3]; 10 mg/kg, vs sham",−23.9%
same,effect of 10 days treatment on glucose tolerance,"[3]; 10 mg/kg, not statistically significant",around 27.6%
same,"Blood glucose profile, 0 min post glucose load",[3]; 25 mg/kg,4.81 ± 0.35 mM
same,"Blood glucose % change compared to control, 0 min post glucose load","[3]; 25 mg/kg, vs sham",−41.8%
same,"Blood glucose profile, 30 min post glucose load",[3]; 25 mg/kg,17.8 ± 1.24 mM
same,"Blood glucose % change compared to control, 30 min post glucose load","[3]; 25 mg/kg, vs sham",−38.6%
same,"Blood glucose profile, 60 min post glucose load",[3]; 25 mg/kg,16.3 ± 1.82 mM
same,"Blood glucose % change compared to control, 60 min post glucose load","[3]; 25 mg/kg, vs sham",−48.3%
same,"Blood glucose profile, 90 min post glucose load",[3]; 25 mg/kg,13.0 ± 1.66 mM
same,"Blood glucose % change compared to control, 90 min post glucose load","[3]; 25 mg/kg, vs sham",−45.5%
same,"Blood glucose profile, 120 min post glucose load",[3]; 25 mg/kg,8.83 ± 0.72 mM
same,"Blood glucose % change compared to control, 120 min post glucose load","[3]; 25 mg/kg, vs sham",−58.2%
same,"Blood glucose profile, −30 min post glucose load",[3]; 25 mg/kg,4.57 ± 0.30 mM
same,"Blood glucose % change compared to control, −30 min post glucose load","[3]; 25 mg/kg, vs sham",−43.5%
same,effect of 10 days treatment on glucose tolerance (overall improvement in OGTT),"[3]; 25 mg/kg, vs sham",around 45.3%
same,Comparative antihyperglycemic activity: Day 10 (OGTT),[3]; test dose 10 mg/kg,27.6*
same,Comparative antihyperglycemic activity: Day 10 (OGTT),[3]; test dose 25 mg/kg,45.3**
same,fall in blood glucose profile (in words),[4]; 10 mg/kg,not statistically significant on any day post treatment
same,"Blood glucose, day 1 post treatment",[4]; 10 mg/kg,19.8 ± 2.47 mM
same,"Blood glucose % change compared to control, day 1",[4]; 10 mg/kg,−0.9%
same,"Blood glucose, day 2 post treatment",[4]; 10 mg/kg,18.5 ± 2.34 mM
same,"Blood glucose % change compared to control, day 2",[4]; 10 mg/kg,−9.60%
same,"Blood glucose, day 3 post treatment",[4]; 10 mg/kg,17.9 ± 2.14 mM
same,"Blood glucose % change compared to control, day 3",[4]; 10 mg/kg,−18.6%
same,"Blood glucose, day 4 post treatment",[4]; 10 mg/kg,15.3 ± 2.96 mM
same,"Blood glucose % change compared to control, day 4",[4]; 10 mg/kg,−26.8%
same,"Blood glucose, day 5 post treatment",[4]; 10 mg/kg,13.8 ± 2.98 mM
same,"Blood glucose % change compared to control, day 5",[4]; 10 mg/kg,−35.0%
same,"Blood glucose, day 6 post treatment",[4]; 10 mg/kg,13.1 ± 3.41 mM
same,"Blood glucose % change compared to control, day 6",[4]; 10 mg/kg,−40.7%
same,"Blood glucose, day 7 post treatment",[4]; 10 mg/kg,11.8 ± 3.55 mM
same,"Blood glucose % change compared to control, day 7",[4]; 10 mg/kg,−42.0%
same,"Blood glucose, day 8 post treatment",[4]; 10 mg/kg,12.1 ± 3.39 mM
same,"Blood glucose % change compared to control, day 8",[4]; 10 mg/kg,−42.2%
same,"Blood glucose, day 9 post treatment",[4]; 10 mg/kg,14.2 ± 2.98 mM
same,"Blood glucose % change compared to control, day 9",[4]; 10 mg/kg,−39.4%
same,antihyperglycemic and antidyslipidemic/antihyperlipidemic activity (in words),[4]; 25 mg/kg,significant antihyperglycemic and antidyslipidemic activity
same,"Blood glucose, day 1 post treatment",[4]; 25 mg/kg,22.4 ± 1.24 mM
same,"Blood glucose % change compared to control, day 1",[4]; 25 mg/kg,+0.20%
same,"Blood glucose, day 2 post treatment",[4]; 25 mg/kg,16.6 ± 3.85 mM
same,"Blood glucose % change compared to control, day 2",[4]; 25 mg/kg,−33.6%
same,"Blood glucose, day 3 post treatment",[4]; 25 mg/kg,12.9 ± 3.00 mM
same,"Blood glucose % change compared to control, day 3",[4]; 25 mg/kg,−39.5%
same,"Blood glucose, day 4 post treatment",[4]; 25 mg/kg,10.6 ± 2.89 mM
same,"Blood glucose % change compared to control, day 4",[4]; 25 mg/kg,−54.9%
same,"Blood glucose, day 5 post treatment",[4]; 25 mg/kg,8.80 ± 3.84 mM
same,"Blood glucose % change compared to control, day 5",[4]; 25 mg/kg,−55.6%
same,"Blood glucose, day 6 post treatment",[4]; 25 mg/kg,7.60 ± 3.46 mM
same,"Blood glucose % change compared to control, day 6",[4]; 25 mg/kg,−61.1%
same,maximum percentage fall in blood glucose,"[4]; 25 mg/kg, day 6 of treatment",around 61.1%
same,"Blood glucose, day 7 post treatment",[4]; 25 mg/kg,10.6 ± 2.20 mM
same,"Blood glucose % change compared to control, day 7",[4]; 25 mg/kg,−52.2%
same,"Blood glucose, day 8 post treatment",[4]; 25 mg/kg,8.30 ± 1.13 mM
same,"Blood glucose % change compared to control, day 8",[4]; 25 mg/kg,−60.0%
same,"Blood glucose, day 9 post treatment",[4]; 25 mg/kg,7.90 ± 1.30 mM
same,"Blood glucose % change compared to control, day 9",[4]; 25 mg/kg,−58.5%
same,antihyperglycemic and antidyslipidemic/antihyperlipidemic activity (in words),"[4]; 25 mg/kg, listed as S-isomer",marked antihyperglycemic and antihyperlipidemic effect compared to racemic mixture
same,Comparative antihyperglycemic activity: Average Fall,[4]; test dose 10 mg/kg,42.2*
same,Comparative antihyperglycemic activity: Average Fall,[4]; test dose 25 mg/kg,61.1**
